The values that follow come from the METLIN SMRT retention time set (Domingo-Almenara et al. 2019).

A short description of this series: gradient 5% acetonitrile 3 min, to 50% in 2 min, to 85% in 15 min, held 3 min, 100 µL/min. To be noted: column: Zorbax Extend-C18 2.1 x 50 mm; eluents: water / acetonitrile, 0.1% formic acid. In outline:
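Retention times of pure standards were taken from adduct peaks that were selected by computer and manually inspected. Over 3 months, mixtures of ~100 molecules were run by HPLC–quadrupole time-of-flight mass spectrometry in positive and negative ionization mode. The Zorbax Extend-C18 column (2.1 × 50 mm, 1.8 μm) ran at 100 μL/min in water and acetonitrile, each containing 0.1% formic acid, with 40 μL dead volume and 900 μL dwell volume.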
`CC(C)Cn1cnc2c(-c3ccc(F)cc3)csc2c1=O` came in with an RP-LC retention time of 1030 s.

Regarding `COCCN1CCC(CNC(=O)Cc2cccc3ccccc23)CC1`, the RP-LC retention time turned out to be 561 s.

On to `Cc1nn(C(C)C)c(C)c1S(=O)(=O)N1CCN(C(=O)C(C)Oc2ccccc2)CC1` (centres undefined), for which the RP-LC retention time was found to be 665 s.

Consider `COc1ccc(-c2csc(NC3=NS(=O)(=O)c4ccccc43)n2)cc1`, for which the RP-LC retention time was found to be 886 s.

For `COc1ccc(N2CC(CNC(=O)Nc3c(F)cccc3F)CC2=O)cc1` (centres undefined), the RP-LC retention time is 658 s.

In turn, `O=C(CN1C(=O)CCCc2cc(S(=O)(=O)N3CCCCCC3)ccc21)Nc1ccccc1F` showed an RP-LC retention time of 953 s.

Compound `COCCNC(=O)Cc1ccc(NC(=O)c2ccc(C(C)(C)C)cc2)cc1` gave an RP-LC retention time of 790 s.

Compound `CCCCN1CCN(C(=O)c2cc(-c3ccncc3)cn2Cc2ccccc2C)CC1` returned an RP-LC retention time of 576 s.

Take `O=C(Nc1ccc(F)cc1)C1CCCN(c2nnc3ccc(Cl)cn23)C1` (centres undefined): the RP-LC retention time turned out to be 689 s.

The compound `CCc1nc(-c2csc(S(=O)(=O)N3CCC(C(=O)N4CCCCC4)CC3)c2)no1` returned an RP-LC retention time of 903 s.

Take `CCOc1ccc(-c2noc(Cn3cnc4c(cnn4-c4cc(Cl)ccc4C)c3=O)n2)cc1OC`: the RP-LC retention time was 1030 s.

`CN(Cc1ccco1)S(=O)(=O)c1ccc(C(=O)Nc2cccc(Cl)c2Cl)cc1`: the RP-LC retention time stood at 1010 s.

Take `CC1CC(=O)N(CC(=O)Nc2cccc(Cl)c2)c2ccccc2S1(=O)=O` (centres undefined): the RP-LC retention time turned out to be 796 s.

With `Cc1ccc(N2C(=O)CN(S(=O)(=O)c3ccccc3)CC2(C)C(=O)NC2CCCC2)cc1C` (centres undefined), the RP-LC retention time was found to be 963 s.

Compound `CC(C)n1c(=O)oc2cc(-c3noc(-c4cccc(Br)c4)n3)ccc21` had an RP-LC retention time of 1340 s.

`CCc1nnc2c(=O)n(CC(=O)N3CCN(c4ccccc4)CC3)c3cccnc3n12` came in with an RP-LC retention time of 738 s.

On to `Fc1ccc(-c2csc(Nc3cccnc3)n2)cc1`, for which the RP-LC retention time was determined as 669 s.

The compound `Cc1ccc(NC(=O)CSc2ccc(N3CCCC(C(=O)NC4CC4)C3)nn2)c(Cl)c1` (centres undefined) registered an RP-LC retention time of 705 s.

Regarding `CC1CCN(c2ccc(CNc3nc4ccncc4n(C(C)C)c3=O)cc2)CC1`, the RP-LC retention time was determined as 574 s.

For the compound `O=C(NCCc1ccccc1)Nc1cccc(-c2nnc3n2CCCC3)c1`, the RP-LC retention time was determined as 694 s.

Regarding `Cc1nn(CC(=O)NC2CCCC2)c(=O)c2cc(-c3ccccc3)nn12`, the RP-LC retention time turned out to be 852 s.

As for `O=C(C1CCCN(c2ncnc3c2nc2n3CCCCC2)C1)N1CCN(Cc2ccccc2)CC1` (centres undefined), the RP-LC retention time came out at 615 s.

In the case of `CCOC(=O)N1CCN(Cc2nc(-c3ccc(N4CCCC4)nc3)no2)CC1`, the RP-LC retention time stood at 604 s.

In the case of `CCc1nc(-c2csc(S(=O)(=O)N3CCCC(C(=O)Nc4cccnc4)C3)c2)no1` (centres undefined), the RP-LC retention time stood at 678 s.

Turning to `O=C(NCC1CN(CC2CC2)CC12CCCCC2)Nc1ccc(F)cc1` (centres undefined), the RP-LC retention time was 687 s.

For `O=C(Nc1cccc([N+](=O)[O-])c1)C1(c2cccs2)CCOCC1`, the RP-LC retention time worked out at 558 s.

With `Cc1ccc(N2CCC(NC(=O)Cc3ccccc3C)C2=O)cc1` (centres undefined), the RP-LC retention time is 869 s.

For `CC(C)c1nc(-n2cccc2)sc1C(=O)NCCc1ccccc1`, the RP-LC retention time is 1190 s.

For `Cc1cc(C)c2c(N3CCSCC3)nc(C(=O)N3CCN(c4ccccc4)CC3)nc2n1`, the RP-LC retention time came to 722 s.

For `COc1cccc(CNC(=O)CN2C(=O)C3CCCCN3c3ccc(S(=O)(=O)N(C)C)cc32)c1` (centres undefined), the RP-LC retention time amounted to 887 s.

Compound `COc1ccc(CN2C=C(C(=O)OCc3ccccc3Cl)C(C)=NS2(=O)=O)cc1` registered an RP-LC retention time of 1170 s.

For the compound `Cc1noc(-c2ccc(-n3ncc(C(=O)NC4CCCCC4)c3C)nc2)n1`, the RP-LC retention time turned out to be 737 s.

Turning to `CCn1c(=O)c2ccn(CC(=O)NCc3ccc(C)cc3)c2n(CC)c1=O`, the RP-LC retention time was found to be 706 s.

`O=C(Nc1ccc(F)c(F)c1)C1CCN(c2nccnc2Sc2ccccc2)CC1` returned an RP-LC retention time of 1110 s.

In turn, `COc1ccccc1CNC(=O)C1CCN(c2cc(N3CCOCC3)ncn2)CC1` showed an RP-LC retention time of 619 s.

On to `Cc1ccc(-c2cc3c4nnc(CCC(=O)N5CCN(C6CCCCC6)CC5)n4ccn3n2)cc1C`, for which the RP-LC retention time stood at 682 s.

As for `CC(C)c1ccc(S(=O)(=O)N2CCc3c(c(CN4CCCC4)nn3C)C2)cc1`, the RP-LC retention time is 721 s.

In turn, `CCOC(=O)C1CCCN(Cc2nc3nc(C)cc(N4CCC(C)CC4)n3n2)C1` (centres undefined) registered an RP-LC retention time of 652 s.

In the case of `N#Cc1cccc(-c2cn3c(n2)N(C(=O)c2ccccc2)CCC3)c1`, the RP-LC retention time amounted to 708 s.

In turn, `CC(=O)c1cccc(NC(=O)N2CCc3c(c(COc4ccc(F)cc4)nn3C)C2)c1` returned an RP-LC retention time of 801 s.

`Cc1ccc(NS(=O)(=O)c2c(C)nc3sc4cc(C)ccc4n3c2=O)cc1` gave an RP-LC retention time of 1160 s.

`Cc1cc(C)n(Cc2nc(-c3ccc(NC(=O)C4CCCO4)cc3)oc2C)n1` (centres undefined) displayed an RP-LC retention time of 795 s.

In turn, `Cc1ccc(N(CN2CCCC2=O)C(=O)c2ccc(C)c(C)c2)cc1` registered an RP-LC retention time of 783 s.

For the compound `CC(=O)NCCc1csc(C2CCCN(C(=O)C3(c4ccccc4)CC3)C2)n1` (centres undefined), the RP-LC retention time worked out at 705 s.

`Cc1cc(C)cc(C(=O)N2CCCC(C(=O)NC3CC3)C2)c1` (centres undefined) registered an RP-LC retention time of 714 s.

On to `COc1ccc(OC)c(NC(=O)N2CCc3c(c(C(=O)N4CCOCC4)nn3C)C2)c1`, for which the RP-LC retention time amounted to 648 s.

The compound `CCC1CN(C(=O)Nc2ccc3c(c2)OCCO3)c2ccccc2O1` (centres undefined) showed an RP-LC retention time of 966 s.

`COC(=O)c1c(NCCN2CCCc3ccccc32)c2cc(F)ccc2[nH]c1=O` showed an RP-LC retention time of 952 s.

Turning to `Cc1cc(C)n(-c2ccc(C(=O)NCCCN3CCCC3=O)nn2)n1`, the RP-LC retention time is 637 s.

Compound `COc1ccc(-c2nc3cnccn3c2NCCC(=O)NC(C)C)cc1` displayed an RP-LC retention time of 609 s.

Take `O=C(Nc1cccc(Cl)c1)C1CCN(C(=O)C2Sc3ccccc3NC2=O)CC1` (centres undefined): the RP-LC retention time was 837 s.

Compound `CCCNC(=O)C1CCN(c2ccc(SCC(=O)Nc3ccccc3Cl)nn2)CC1` came in with an RP-LC retention time of 655 s.

Regarding `CN1C(=O)C2CCCCN2c2ccc(C(=O)N3CCN(c4ccccn4)CC3)cc21` (centres undefined), the RP-LC retention time was determined as 603 s.

`COc1cccc(-c2cc3c(=O)n(Cc4nc(-c5ccc(Cl)cc5)no4)ccn3n2)c1` displayed an RP-LC retention time of 1120 s.

`Cc1cc(C)c(S(=O)(=O)N2CCC(n3cnc4ccc(C)cc4c3=O)CC2)c(C)c1`: the RP-LC retention time was 640 s.

Take `CCOC(=O)c1nc(Nc2cc(Cl)ccc2C)c2ccccc2n1`: the RP-LC retention time was found to be 929 s.

`O=C(CCC1NC(=O)c2ccccc2NC1=O)NCc1nc(-c2ccccc2)no1` (centres undefined): the RP-LC retention time is 624 s.

As for `COc1cccc(-c2ccnc3nc(-c4ccccc4OC)nn23)c1`, the RP-LC retention time came out at 860 s.

The compound `COc1ccc(NC(=O)C2CCCN(c3nc4ccccc4nc3C(F)(F)F)C2)c(OC)c1` (centres undefined) came in with an RP-LC retention time of 1190 s.

Turning to `O=C(CC1CCN(C(=O)Nc2cccc(Cl)c2)CC1)N1CCN(c2ccccn2)CC1`, the RP-LC retention time stood at 630 s.

`CCc1ccccc1NC(=O)N1CCN(c2cc(C)nc(N3CCOCC3)n2)CC1` gave an RP-LC retention time of 695 s.

Regarding `O=C(Cc1cccs1)Nc1cccc2ccc(-n3ccnc3)nc12`, the RP-LC retention time worked out at 610 s.

`Cc1ccc(S(=O)(=O)Nc2ccc(Nc3ccc(-n4cccn4)nn3)cc2)c(C)c1` displayed an RP-LC retention time of 829 s.

The compound `CC(C(=O)N1CCC(c2cc(N)on2)CC1)c1ccccc1` (centres undefined) gave an RP-LC retention time of 722 s.

Compound `O=C(c1cccn1-c1nnc(N2CCCC2)s1)N1CCN(c2ccccn2)CC1` gave an RP-LC retention time of 598 s.

Turning to `O=C(c1ccco1)N1CCC(Cc2noc(C3CC3)n2)C1` (centres undefined), the RP-LC retention time came out at 709 s.

The compound `Cc1nnc2c(NS(=O)(=O)c3ccccc3C(F)(F)F)cccn12` showed an RP-LC retention time of 689 s.

Turning to `O=S(=O)(c1cccn2c(SCc3ccccc3)nnc12)N1CCN(c2ccc(F)cc2)CC1`, the RP-LC retention time is 958 s.

On to `Cn1cc(S(=O)(=O)N2CCCCC2)cc1C(=O)N1CCc2ccccc2C1`, for which the RP-LC retention time was 938 s.

`Cc1ccc(NC(=O)Cn2nc(N(C)C)c3ccccc3c2=O)c(F)c1` showed an RP-LC retention time of 805 s.

`CCn1cc(CCN2CCC(C(=O)NC(C)C)CC2)c2cccnc21` came in with an RP-LC retention time of 567 s.

`Cc1ccc(NC(=O)Cn2nc(N3CCSCC3)c3ccccc3c2=O)cc1`: the RP-LC retention time came out at 1170 s.

In turn, `CCOC(=O)c1c(C)[nH]c(CCC(=O)Nc2ccc(F)cc2F)c1C` returned an RP-LC retention time of 905 s.

In turn, `CCc1nc2c(c(=O)n1CC(=O)NC1CCCCC1)CN(Cc1ccccc1)CC2` gave an RP-LC retention time of 652 s.

As for `CCc1noc(-c2ccnc(-n3ncc(C(=O)N4CCSCC4)c3C)c2)n1`, the RP-LC retention time was found to be 904 s.

Regarding `CN1C(=O)CCc2cc(NC(=O)c3n[nH]c4ccccc34)ccc21`, the RP-LC retention time was determined as 730 s.

As to `COc1ccc(C)cc1NC(=O)C1CCN(S(=O)(=O)c2ccc3c(c2)CCCC(=O)N3)CC1`, the RP-LC retention time was determined as 816 s.

As to `COc1cc(NC(=O)CCSc2ccccc2)c2ncccc2c1`, the RP-LC retention time stood at 1060 s.

For `COc1cccc(Cn2nc3c(S(=O)(=O)N4CCCCCC4)cccn3c2=O)c1`, the RP-LC retention time stood at 918 s.
